From patent US9169260B2 (MERCK SHARP & DOHME CORP., priority 2011, dated 2015) come the findings set out here.

Molecules are shown by their SMILES. Where only a bound is given, the exact number is not on record here.

As usually defined, the IC50 is the point on the concentration scale where inhibition reaches its midpoint.

In this assay the target is GST tagged IRAK-4 (Homo sapiens (Human), UniProt Q9NWZ3). The assay can be described thus: IRAK-4 Kinase Assay (IMAP fluorescence polarization). The class given is biochemical. Conditions: 100 μM ATP, 30 minutes at 25° C. In a few lines:
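Activity was read by IMAP fluorescence polarization, where phosphopeptide binding to M(III) nanoparticles raises FP. The 30-minute, 25° C reaction used 100 μM ATP, 100 nM RP7030 substrate and 0.5 nM GST-IRAK-4 in pH 7.2 Tris buffer with MgCl2, DTT and Tween 20.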
In general terms: In fluorescence polarisation assays a small probe gives low polarisation when free and higher when bound to something large.

Chain of GST tagged IRAK-4 (Q9NWZ3 whole entry): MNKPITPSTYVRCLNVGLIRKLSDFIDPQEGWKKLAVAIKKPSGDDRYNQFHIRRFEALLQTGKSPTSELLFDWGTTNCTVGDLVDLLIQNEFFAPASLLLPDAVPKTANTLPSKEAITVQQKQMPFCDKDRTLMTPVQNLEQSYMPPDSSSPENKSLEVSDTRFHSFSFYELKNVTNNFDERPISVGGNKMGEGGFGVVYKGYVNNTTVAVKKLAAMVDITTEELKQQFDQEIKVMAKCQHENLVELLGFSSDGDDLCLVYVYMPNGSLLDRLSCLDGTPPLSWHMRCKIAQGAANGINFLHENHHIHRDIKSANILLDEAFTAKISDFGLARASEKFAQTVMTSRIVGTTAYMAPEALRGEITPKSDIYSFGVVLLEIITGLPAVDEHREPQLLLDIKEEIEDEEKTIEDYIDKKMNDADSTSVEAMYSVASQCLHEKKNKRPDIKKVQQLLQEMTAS

On to `Cc1ccc(-n2nc(C3CCN(C4CC(C(C)(C)C)C4)CC3)cc2NC(=O)c2cnn3cccnc23)cc1` (stereo not drawn) [Example 256, N-{3-[1-(3-tert-butylcyclobutyl)piperidin-4-yl]-1-(4-methylphenyl)-1H-pyrazol-5-yl}pyrazolo[1,5-a]pyrimidine-3-carboxamide], for which the IC50 is under 0.1 µM. `COc1ccc(-c2cc(NC(=O)c3cnn4cccnc34)n(-c3cccc(F)c3)n2)cc1` [Example 132, N-(1-(3-fluorophenyl)-3-(4-methoxyphenyl)-1H-pyrazol-5-yl)pyrazolo[1,5-a]pyrimidine-3-carboxamide] displayed an IC50 (μM) of under 1 µM. The same measure, in the same setting: for `Cc1ccc(-n2nc(C3CCC(C(N)=O)CC3)cc2NC(=O)c2cnn3cccnc23)cc1` (stereo not drawn) [Example 95, N-(3-(4-carbamoylcyclohexyl)-1-(p-tolyl)-1H-pyrazol-5-yl)pyrazolo[1,5-a]pyrimidine-3-carboxamide] the value was under 1 µM.
